# BigSolDB 2.1
smiles,measurement,setting,value
CCc1cc(C(N)=S)ccn1,solubility (mole fraction),"in 2-ethoxyethanol, 278.15 K",0.0252
same,solubility (mole fraction),"in 2-ethoxyethanol, 283.15 K",0.0261
same,solubility (mole fraction),"in 2-ethoxyethanol, 288.15 K",0.0289
same,solubility (mole fraction),"in 2-ethoxyethanol, 293.15 K",0.0336
same,solubility (mole fraction),"in 2-ethoxyethanol, 298.15 K",0.0383
same,solubility (mole fraction),"in 2-ethoxyethanol, 303.15 K",0.0449
same,solubility (mole fraction),"in 2-ethoxyethanol, 308.15 K",0.0516
same,solubility (mole fraction),"in 2-ethoxyethanol, 313.15 K",0.0596
same,solubility (mole fraction),"in 2-ethoxyethanol, 318.15 K",0.0677
same,solubility (mole fraction),"in 2-ethoxyethanol, 323.15 K",0.0751
same,solubility (mole fraction),"in 2-methoxyethanol, 278.15 K",0.0343
same,solubility (mole fraction),"in 2-methoxyethanol, 283.15 K",0.0387
same,solubility (mole fraction),"in 2-methoxyethanol, 288.15 K",0.0441
same,solubility (mole fraction),"in 2-methoxyethanol, 293.15 K",0.0494
same,solubility (mole fraction),"in 2-methoxyethanol, 298.15 K",0.055
same,solubility (mole fraction),"in 2-methoxyethanol, 303.15 K",0.0617
same,solubility (mole fraction),"in 2-methoxyethanol, 308.15 K",0.0676
same,solubility (mole fraction),"in 2-methoxyethanol, 313.15 K",0.075
same,solubility (mole fraction),"in 2-methoxyethanol, 318.15 K",0.0848
same,solubility (mole fraction),"in 2-methoxyethanol, 323.15 K",0.094
same,solubility (mole fraction),"in DMAc, 278.15 K",0.169
same,solubility (mole fraction),"in DMAc, 283.15 K",0.173
same,solubility (mole fraction),"in DMAc, 288.15 K",0.179
same,solubility (mole fraction),"in DMAc, 293.15 K",0.189
same,solubility (mole fraction),"in DMAc, 298.15 K",0.199
same,solubility (mole fraction),"in DMAc, 303.15 K",0.209
same,solubility (mole fraction),"in DMAc, 308.15 K",0.221
same,solubility (mole fraction),"in DMAc, 313.15 K",0.233
same,solubility (mole fraction),"in DMAc, 318.15 K",0.245
same,solubility (mole fraction),"in DMAc, 323.15 K",0.257
same,solubility (mole fraction),"in DMF, 278.15 K",0.104
same,solubility (mole fraction),"in DMF, 283.15 K",0.112
same,solubility (mole fraction),"in DMF, 288.15 K",0.123
same,solubility (mole fraction),"in DMF, 293.15 K",0.135
same,solubility (mole fraction),"in DMF, 298.15 K",0.148
same,solubility (mole fraction),"in DMF, 303.15 K",0.157
same,solubility (mole fraction),"in DMF, 308.15 K",0.167
same,solubility (mole fraction),"in DMF, 313.15 K",0.185
same,solubility (mole fraction),"in DMF, 318.15 K",0.199
same,solubility (mole fraction),"in DMF, 323.15 K",0.219
same,solubility (mole fraction),"in DMSO, 293.15 K",0.187
same,solubility (mole fraction),"in DMSO, 298.15 K",0.205
same,solubility (mole fraction),"in DMSO, 303.15 K",0.216
same,solubility (mole fraction),"in DMSO, 308.15 K",0.228
same,solubility (mole fraction),"in DMSO, 313.15 K",0.243
same,solubility (mole fraction),"in DMSO, 318.15 K",0.259
same,solubility (mole fraction),"in DMSO, 323.15 K",0.271
same,solubility (mole fraction),"in NMP, 278.15 K",0.182
same,solubility (mole fraction),"in NMP, 283.15 K",0.191
same,solubility (mole fraction),"in NMP, 288.15 K",0.199
same,solubility (mole fraction),"in NMP, 293.15 K",0.212
same,solubility (mole fraction),"in NMP, 298.15 K",0.22
same,solubility (mole fraction),"in NMP, 303.15 K",0.23
same,solubility (mole fraction),"in NMP, 308.15 K",0.242
same,solubility (mole fraction),"in NMP, 313.15 K",0.253
same,solubility (mole fraction),"in NMP, 318.15 K",0.265
same,solubility (mole fraction),"in NMP, 323.15 K",0.277
same,solubility (mole fraction),"in acetone, 278.15 K",0.00589
same,solubility (mole fraction),"in acetone, 283.15 K",0.00695
same,solubility (mole fraction),"in acetone, 288.15 K",0.00799
same,solubility (mole fraction),"in acetone, 293.15 K",0.00925
same,solubility (mole fraction),"in acetone, 298.15 K",0.0109
same,solubility (mole fraction),"in acetone, 303.15 K",0.0124
same,solubility (mole fraction),"in acetone, 308.15 K",0.0148
same,solubility (mole fraction),"in acetone, 313.15 K",0.0172
same,solubility (mole fraction),"in acetone, 318.15 K",0.0194
same,solubility (mole fraction),"in acetone, 323.15 K",0.0226
same,solubility (mole fraction),"in ethanol, 278.15 K",0.00464
same,solubility (mole fraction),"in ethanol, 283.15 K",0.00566
same,solubility (mole fraction),"in ethanol, 288.15 K",0.00695
same,solubility (mole fraction),"in ethanol, 293.15 K",0.00835
same,solubility (mole fraction),"in ethanol, 298.15 K",0.00993
same,solubility (mole fraction),"in ethanol, 303.15 K",0.012
same,solubility (mole fraction),"in ethanol, 308.15 K",0.0134
same,solubility (mole fraction),"in ethanol, 313.15 K",0.0161
same,solubility (mole fraction),"in ethanol, 318.15 K",0.0192
same,solubility (mole fraction),"in ethanol, 323.15 K",0.0228
same,solubility (mole fraction),"in ethyl acetate, 278.15 K",0.00874
same,solubility (mole fraction),"in ethyl acetate, 283.15 K",0.0102
same,solubility (mole fraction),"in ethyl acetate, 288.15 K",0.0122
same,solubility (mole fraction),"in ethyl acetate, 293.15 K",0.0144
same,solubility (mole fraction),"in ethyl acetate, 298.15 K",0.0171
same,solubility (mole fraction),"in ethyl acetate, 303.15 K",0.0199
same,solubility (mole fraction),"in ethyl acetate, 308.15 K",0.0231
same,solubility (mole fraction),"in ethyl acetate, 313.15 K",0.0265
same,solubility (mole fraction),"in ethyl acetate, 318.15 K",0.0312
same,solubility (mole fraction),"in ethyl acetate, 323.15 K",0.0381
same,solubility (mole fraction),"in isopropanol, 278.15 K",0.00292
same,solubility (mole fraction),"in isopropanol, 283.15 K",0.00334
same,solubility (mole fraction),"in isopropanol, 288.15 K",0.0042
same,solubility (mole fraction),"in isopropanol, 293.15 K",0.00507
same,solubility (mole fraction),"in isopropanol, 298.15 K",0.00642
same,solubility (mole fraction),"in isopropanol, 303.15 K",0.00805
same,solubility (mole fraction),"in isopropanol, 308.15 K",0.0096
same,solubility (mole fraction),"in isopropanol, 313.15 K",0.0115
same,solubility (mole fraction),"in isopropanol, 318.15 K",0.0143
same,solubility (mole fraction),"in isopropanol, 323.15 K",0.018
same,solubility (mole fraction),"in methanol, 278.15 K",0.00534
same,solubility (mole fraction),"in methanol, 283.15 K",0.0063
same,solubility (mole fraction),"in methanol, 288.15 K",0.0074
same,solubility (mole fraction),"in methanol, 293.15 K",0.00919
same,solubility (mole fraction),"in methanol, 298.15 K",0.0112
same,solubility (mole fraction),"in methanol, 303.15 K",0.013
same,solubility (mole fraction),"in methanol, 308.15 K",0.0159
same,solubility (mole fraction),"in methanol, 313.15 K",0.018
same,solubility (mole fraction),"in methanol, 318.15 K",0.0215
same,solubility (mole fraction),"in methanol, 323.15 K",0.0256
same,solubility (mole fraction),"in n-propanol, 278.15 K",0.00381
same,solubility (mole fraction),"in n-propanol, 283.15 K",0.00464
same,solubility (mole fraction),"in n-propanol, 288.15 K",0.00562
same,solubility (mole fraction),"in n-propanol, 293.15 K",0.00719
same,solubility (mole fraction),"in n-propanol, 298.15 K",0.00862
same,solubility (mole fraction),"in n-propanol, 303.15 K",0.0103
same,solubility (mole fraction),"in n-propanol, 308.15 K",0.0128
same,solubility (mole fraction),"in n-propanol, 313.15 K",0.0159
same,solubility (mole fraction),"in n-propanol, 318.15 K",0.0192
same,solubility (mole fraction),"in n-propanol, 323.15 K",0.0231
